Columns and labels:
[1] = system: spontaneously hypertensive rats (SHR); test: Antihypertensive Activity: Spontaneously Hypertensive Rat (SHR test); type: in vivo, rat (male spontaneously hypertensive); conditions: Rattus norvegicus, p.o. or i.v., read-out: SHR TEST: change in blood pressure (delta % of control); for change in vivo at 5 mg/kg: dose 5 mpk
Procedure: Mean arterial pressure and heart rate were monitored from directly cannulated animals. Compounds were administered p.o. or i.v. and blood pressure was recorded for various time intervals post dosing.
Blood pressure changes (expressed as change in control pressure and reported as delta % of control for each animal) were analyzed statistically using a one way analysis of variance with a Dunnett's test. P values less than 0.05 were considered significant.

[2] = system: alpha adrenergic receptor; test: Alpha-1 Adrenergic Blockage: Inhibition of Phenylephrine-Induced Increases in Blood Pressure in the Anesthetized Dog; type: in vivo; conditions: dose 0.03 mpk, i.v., phenylephrine 10 μg/kg
From the text: Dogs were anesthetized and bilaterally vagotomized. A femoral artery and vein were cannulated for detection of diastolic blood pressure and drug administration, respectively. Percent inhibition of alpha adrenergic receptor antagonism was quantified by determining dose-response (increase in diastolic pressure) relationship of phenylephrine before and after various doses of the antagonist.

5HT2 receptor = biological target: T1, 5HT2 receptor (Rattus norvegicus, UniProt P14842); test: Brain Serotonin 5HT2 Radioreceptor Assay (3H-ketanserin); type: binding; conditions: rat frontal cortex membranes, 15 minutes, 37° C., read-out: RECEPTOR BINDING 5HT-2 (IC50)
T1 construct: Membrane fragments were prepared from the frontal cortex dissected from brains obtained from female rats; from tissue; host or cells: frontal cortex, female rats
Procedure: (§1) Membrane fragments were prepared from the frontal cortex dissected from brains obtained from female rats (~150 g). The 5HT2 sites were labeled with ^3 H-ketanserin. Membrane fragments, ^3 H-ketanserin and an unlabeled test compound were incubated for 15 minutes at 37° C. Compound bound to the receptor site was separated from the remaining unbound compound by vacuum filtration.
The ability of a nonlabeled compound to compete with ^3 H-ketanserin for binding sites was a measure of the compound's affinity for the 5HT2 receptor. Specific binding was determined by the difference between total counts bound and counts bound in the presence of 10^-6 M methysergide.
Data are presented as the IC50, the concentration of nonlabeled compound required to displace 50% of the ^3 H-ketanserin specifically bound to 5HT2 binding sites.

[3] = biological target: alpha-1 adrenergic receptor; test: Brain Alpha-1 Radioreceptor Assay (3H-prazosin); conditions: guinea pig brain membranes, 30 minutes, 30° C., read-out: RECEPTOR BINDING ALPHA-1 (IC50)
Procedure: Membrane fragments were prepared from the brains of mature female guinea pigs after removal of the corpus striata. The alpha-1 adrenergic receptor sites were labeled with ^3 H-prazosin. Membrane fragments, ^3 H-prazosin and an unlabeled test compound were incubated for 30 minutes at 30° C. Compound bound to the receptor site was separated from the remaining unbound radioligand by vacuum filtration. Specific binding was determined by the difference between total counts bound and counts bound in the presence of 10-^5 M phentolamine.

5HT1A receptor = biological target: T2, 5HT1A receptor (Rattus norvegicus, UniProt P19327); test: Brain Serotonin 5HT1A Radioreceptor Assay (3H-80H-DPAT); type: binding; conditions: rat frontal cortex membranes, 10 minutes, 37° C., read-out: RECEPTOR BINDING 5HT-1A (IC50)
T2 construct: Membrane fragments were prepared from the frontal cortex dissected from brains obtained from female rats; from tissue; host or cells: frontal cortex, female rats
T2 sequence (P19327 1-422): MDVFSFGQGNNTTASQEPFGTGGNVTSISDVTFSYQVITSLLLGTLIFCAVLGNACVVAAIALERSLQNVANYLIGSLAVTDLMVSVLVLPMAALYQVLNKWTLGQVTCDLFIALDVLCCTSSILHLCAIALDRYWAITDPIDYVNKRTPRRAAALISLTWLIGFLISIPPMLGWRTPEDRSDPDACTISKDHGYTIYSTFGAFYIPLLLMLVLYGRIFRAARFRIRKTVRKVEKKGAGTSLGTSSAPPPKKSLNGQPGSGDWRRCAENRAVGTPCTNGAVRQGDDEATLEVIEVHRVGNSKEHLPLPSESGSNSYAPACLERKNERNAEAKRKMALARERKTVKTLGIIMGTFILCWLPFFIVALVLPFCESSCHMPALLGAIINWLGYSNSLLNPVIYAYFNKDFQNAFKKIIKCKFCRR
Procedure: as §1, with “The 5HT1A” for “The 5HT2”, “^3 H-80H-dipropylaminotetralin (^3 H-80H-DPAT).” for “^3 H-ketanserin.”, “^3 H-80H-DPAT” for “^3 H-ketanserin”, “for 10” for “for 15”, “C. The tubes were then placed in an ice bath for an additional 10 minutes.” for “C.”
The ability of a nonlabeled compound to compete with ^3 H-80H-DPAT for binding sites was a measure of the compound's affinity for the 5HT1A receptor. Specific binding was determined by the difference between total counts bound and counts bound in the presence of 10^-5 M serotonin.
Data are presented at the IC50, the concentration of nonlabeled compound required to displace 50% of the ^3 H-80H-DPAT specifically bound to 5HT1A binding sites.

T1 sequence (P14842 whole entry, the tested form may be a part): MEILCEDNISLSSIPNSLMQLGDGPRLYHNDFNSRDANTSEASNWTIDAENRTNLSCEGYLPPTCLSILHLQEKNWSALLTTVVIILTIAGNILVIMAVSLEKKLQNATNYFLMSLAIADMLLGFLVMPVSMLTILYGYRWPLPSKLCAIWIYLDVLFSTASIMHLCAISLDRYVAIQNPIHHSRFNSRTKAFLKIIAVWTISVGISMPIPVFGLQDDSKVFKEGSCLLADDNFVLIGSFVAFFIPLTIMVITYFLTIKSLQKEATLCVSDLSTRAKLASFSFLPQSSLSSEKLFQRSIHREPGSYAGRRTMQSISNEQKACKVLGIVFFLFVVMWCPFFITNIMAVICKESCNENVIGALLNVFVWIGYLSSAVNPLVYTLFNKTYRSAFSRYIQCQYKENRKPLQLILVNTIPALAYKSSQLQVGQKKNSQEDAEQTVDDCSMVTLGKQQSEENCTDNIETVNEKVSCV

Row | Structure (SMILES) | change in vivo at 5 mg/kg [1] [%] | % INHIB OF PHENYLEPHRINE RESPONSE [2] [%] | other results
1 | Cc1ccccc1N1CCN(CCn2c(=O)c3csc4c3n(c2=O)CCC4=O)CC1 [Example 2, 3,4,5,7,8,9-Hexahydro-4-[2-[4-(2-methylphenyl)piperazin-1-yl]ethyl]thieno[4,3,2-de]pyrido[1,2-c]pyrimidine-3,5,9-trione] | -33 | 83 | 
2 | O=C1CCn2c(=O)n(CCN3CCN(c4ccccc4Cl)CC3)c(=O)c3csc1c32 [Example 3, 4-[2-[4-(2-Chlorophenyl)piperazin-1-yl]ethyl]3,4,5,7,8,9-hexahydrothieno[4,3,2-de]pyrido[1,2-c]pyrimidine-3,5,9-trione] |  | 55 | 
3 | O=C1CCn2c(=O)n(CCN3CCN(c4ccccc4)CC3)c(=O)c3csc1c32 [Example 4, 3,4,5,7,8,9-Hexahydro-4-[2-(4-phenylpiperazin-1-yl)ethyl]thieno[4,3,2-de]pyrido[1,2-c]pyrimidine-3,5,9-trione] |  | 88 | 
4 | COc1cccc(N2CCN(CCn3c(=O)c4csc5c4n(c3=O)CCC5=O)CC2)c1 [Example 5, 3,4,5,7,8,9-Hexahydro-4-[2-[4-(3-methoxyphenyl)piperazin-1-yl]ethyl]thieno[4,3,2-de]pyrido[1,2-c]pyrimidine-3,5,9-trione] |  | 41 | 
5 | COc1ccc(N2CCN(CCn3c(=O)c4csc5c4n(c3=O)CCC5=O)CC2)cc1 [Example 8, 3,4,5,7,8,9-Hexahydro-4-[2-[4-(4-methoxyphenyl)piperazin-1-yl]ethyl]thieno[4,3,2-de]pyrido[1,2-c]pyrimidine-3,5,9-trione] |  | 40 | 
6 | O=C1CCn2c(=O)n(CCN3CCN(c4ccc(F)cc4)CC3)c(=O)c3csc1c32 [Example 9, 3,4,5,7,8,9-Hexahydro-4-[2-[4-(4-fluorophenyl)piperazin-1-yl]ethyl]thieno[4,3,2-de]pyrido[1,2-c]pyrimidine-3,5,9-trione] | -21.5 |  | 
7 | COc1ccccc1N1CCN(CCn2c(=O)c3c(C)sc4c3n(c2=O)CCC4=O)CC1 [Example 13, 3,4,5,7,8,9-Hexahydro-2-methyl-4-[2-[4-(2-methoxyphenyl)piperazin-1-yl]ethyl]thieno[4,3,2-de]pyrido[1,2-c]pyrimidine-3,5,9-trione] |  | 88 | 
8 | COc1ccccc1N1CCN(CCn2c(=O)c3scc4c3n(c2=O)CCC4=O)CC1 [Example 14, 7.8-Dihydro-4-[2-[4-(2-methoxyphenyl)-piperazin-1-yl]ethyl]thieno[2,3,4-de]pyrido[1,2-c]pyrimidine-3,5,9-trione] | -30 |  | IC50 (5HT2 receptor): 1500 nM; IC50 [3]: 6 nM; IC50 (5HT1A receptor): 66 nM
9 | COc1ccccc1N1CCN(CCn2c(=O)c3csc4c3n(c2=O)CCCC4=O)CC1 [Example 15, 4,7,8,9-Tetrahydro-4-[2-[4-(2-methoxyphenyl)-piperazin-1-yl]ethyl]thieno[4,3,2-de]pyrimido[3,4-a]azepine-3,5,10-trione] | -29.8 |  | 
10 | COc1ccccc1N1CCN(CCn2c(=O)c3csc4c3n(c2=O)CCC4O)CC1 (centres unmarked) [Example 21, 3,4,5,7,8,9-Hexahydro-9-hydroxy-4-[2-[4-(2-methoxyphenyl)piperazin-1-yl]ethyl]thieno[4,3,2-de]pyrido[1,2-c]pyrimidine-3,5-dione] | -24.7 | 96 | 
11 | COc1ccccc1N1CCN(CCn2c(=O)c3c(C)sc4c3n(c2=O)CCC4O)CC1 (centres unmarked) [Example 23, 3,4,5,7,8,9-Hexahydro-9-hydroxy-4-[2-[4-(2-methoxyphenyl)piperazin-1-yl]ethyl]-2-methyl-thieno[4,3,2-de]pyrido[1,2-c]pyrimidine-3,5-dione] | -27.4 |  | 
12 | CON=C1CCn2c(=O)n(CCN3CCN(c4ccccc4OC)CC3)c(=O)c3csc1c32 [Example 26, 3,4,5,7,8,9-Hexahydro-9-methoxyimino-4-[2-[4-(2-methoxyphenyl)piperazin-1-yl]ethyl]-thieno[4,3,2-de]pyrido[1,2-c]pyrimidine-3,5-dione] |  | 72 | IC50 (5HT2 receptor): 2000 nM; IC50 [3]: 40 nM; IC50 (5HT1A receptor): 0.72 nM
13 | COc1ccccc1N1CCN(CCn2c(=O)c3csc4c3n(c2=O)CCC4OC(C)=O)CC1 (centres unmarked) [Example 30, 9-Acetyloxy-3,4,5,7,8,9-hexahydro-4-[2-[4-(2-methoxyphenyl)piperazin-1-yl]ethyl]thieno[4,3,2-de]pyrido[1,2-c]pyrimidine-3,5-dione] | -33.2 | 100 | 
14 | CCCC(=O)OC1CCn2c(=O)n(CCN3CCN(c4ccccc4OC)CC3)c(=O)c3csc1c32 (centres unmarked) [Example 31] |  | 100 | 
15 | CCCCCC(=O)OC1CCn2c(=O)n(CCN3CCN(c4ccccc4OC)CC3)c(=O)c3csc1c32 (centres unmarked) [Example 32, 3,4,5,7,8,9-Hexahydro-4-[2-[4-(2-methoxyphenyl)piperazin-1-yl]ethyl]-9-(hexanoyloxy)thieno[4,3,2-de]pyrido[1,2-c]pyrimidine-3,5-dione] |  | 90 | 
16 | COc1ccccc1N1CCN(CCn2c(=O)c3csc4c3n(c2=O)CCC4OC(=O)C(C)C)CC1 (centres unmarked) [Example 33, 3,4,5,7,8,9-Hexahydro-9-(2-methylpropanoyloxy)-4-[2-[4-(2-methoxyphenyl)piperazin-1-yl]ethyl]thieno[4,3,2-de]pyrido[1,2-c]pyrimidine-3,5-dione] | -32 |  | 
17 | COc1ccccc1N1CCN(CCn2c(=O)c3csc4c3n(c2=O)CCC4OC(=O)C(C)(C)C)CC1 (centres unmarked) [Example 34, 3,4,5,7,8,9-Hexahydro-4-[2-[4-(2-methoxyphenyl)piperazin-1-yl]ethyl]-9-[(2,2-dimethyl)propanoyloxy]thieno[4,3,2-de]pyrido[1,2-c]pyrimidine-3,5-dione] | -26 |  | 
18 | COc1ccc(C(=O)OC2CCn3c(=O)n(CCN4CCN(c5ccccc5OC)CC4)c(=O)c4csc2c43)cc1 (centres unmarked) [Example 36, 3,4,5,7,8,9-Hexahydro-9-(4-methoxy)benzoyloxy-4-[2-[4-(2-methoxyphenyl)piperazin-1-yl]ethyl]thieno[4,3,2-de]pyrido[1,2-c]pyrimidine-3,5-dione] | -14 |  | 
19 | COc1ccccc1N1CCN(CCn2c(=O)c3csc4c3n(c2=O)CCC4OC(=O)c2ccc(Cl)cc2)CC1 (centres unmarked) [Example 37, 9-(4-Chlorobenzoyloxy)-3,4,5,7,8,9-hexahydro-4-[2-[4-(2-methoxyphenyl)piperazin-1-yl]ethyl]thieno[4,3,2-de]pyrido[1,2-c]pyrimidine-3,5-dione] | -30.2 |  | 
20 | COc1ccccc1N1CCN(CCn2c(=O)c3csc4c3n(c2=O)CCC4N)CC1 (centres unmarked) [Example 38, 9-Amino-3,4,5,7,8,9-hexahydro-4-[2-[4-(2-methoxyphenyl)piperazin-1-yl]ethyl]thieno[4,3,2-de]pyrido[1,2-c]pyrimidine-3,5-dione] |  |  | IC50 (5HT2 receptor): 800 nM; IC50 [3]: 10 nM; change in vivo at 2.5 mg/kg ([1]; dose 2.5 mpk): -30.1%; IC50 (5HT1A receptor): 50 nM
